# Measurements as given in US20230357870A1 (priority 2020, published 2023).
# “Also recorded” adds a separate entry of the source. Like-named read-outs stand apart in the source and are kept apart here.
# Key:
# [1] = system: T7-scv2-luc-GFP replicon (SEQ ID NO: 2); experiment: microbe, parasite or virus in culture; type: cell-based, SARS-CoV-2
# [2] = system: T7GG-scv2-luc-GFP replicon; experiment: microbe, parasite or virus in culture; type: cell-based, SARS-CoV-2
# [3] = system: pSmart BAC T7-mcv-replicon; experiment: microbe, parasite or virus in culture; type: cell-based, MERS; settings: for EC50: read-out: Antiviral activity (EC50) against T7-mcv-replicon
# [4] = system: pSmart BAC T7-scv2-replicon; experiment: microbe, parasite or virus in culture; type: cell-based, SARS-CoV-2; settings: read-out: Antiviral activity (EC50) against T7-scv2-replicon
# [5] = system: pSmart BAC T7-scv1-replicon; experiment: microbe, parasite or virus in culture; type: cell-based, SARS-CoV-1; settings: read-out: Antiviral activity (EC50) against T7-scv1-replicon
# [6] = Severe acute respiratory syndrome coronavirus 2, Calu-1
# [7] = Severe acute respiratory syndrome coronavirus 2, Huh7.5
# [8] = Severe acute respiratory syndrome coronavirus 2, HEK-293T
# [9] = Severe acute respiratory syndrome coronavirus 2, A549
# [10] = Severe acute respiratory syndrome coronavirus 2, Vero
# [11] = Middle East respiratory syndrome-related coronavirus, HEK-293T
# [12] = Severe acute respiratory syndrome coronavirus, HEK-293T
Compound,"EC50 [1, 6] [nM]","EC50 [1, 7] [nM]","EC50 [2, 8] [nM]","EC50 [1, 9] [nM]","EC50 [1, 8] [nM]","EC50 [1, 10] [nM]","EC50 [3, 11] [nM]","EC50 [4, 8] [nM]","EC50 [5, 12] [nM]",EC50 [3] [nM],EC50 [4] [nM],EC50 [5] [nM],further results
"Cc1cccc(/C=N/Nc2cc(N3CCOCC3)nc(OCCc3ccccn3)n2)c1 [Apilimod, apilimod]",> 42000,> 42000,> 42000,–,–,–,–,–,–,–,–,–,–
"CN(C)C(=O)COC(=O)Cc1ccc(OC(=O)c2ccc(NC(=N)N)cc2)cc1 [Camostat, camostat]",> 42000,–,> 42000,> 42000,> 42000,> 42000,–,–,–,–,–,–,–
N#C[C@@]1(c2ccc3c(N)ncnn23)O[C@H](CO)[C@@H](O)[C@H]1O [GS-441524],1330 ± 270,1030 ± 354,657 ± 66.4,1470 ± 163,603 ± 131,302 ± 19.8,5580 ± 357,603 ± 106,1110 ± 86.5,–,–,–,"concentration to achieve 50% inhibition, MERS replicon compared with SARS-CoV-2 or SARS-CoV-1 replicon [3]: greater concentration; EC50 ([1]; Severe acute respiratory syndrome coronavirus 2, HEK-293T, 30 h, read-out: potency in inhibiting SARS-CoV-2 replicon replication (EC50), determined by % GFP signal): 645 ± 54.3 nM; EC50 ([1]; Severe acute respiratory syndrome coronavirus 2, HEK-293T, 30 h, read-out: potency in inhibiting SARS-CoV-2 replicon replication (EC50), determined by % luciferase activity): 502 ± 109 nM; antiviral activity (in words) [2]: active; EC50 [2, 9]: 716 ± 311 nM; EC50 [2, 6]: 1000 ± 217 nM; EC50 [2, 7]: 831 ± 201 nM; EC50 [2, 10]: 324 ± 173 nM; cytotoxicity (293T cells): No cytotoxicity was detected"
"CC(C)(C)NC(=O)N[C@H](C(=O)N1C[C@H]2[C@@H]([C@H]1C(=O)NC(CC1CCC1)C(=O)C(N)=O)C2(C)C)C(C)(C)C (stereo partly shown) [MK-3034, Boceprevir]",–,–,–,–,–,–,4670 ± 519,3550 ± 346,6410 ± 427,–,–,–,–
"N=C(N)c1ccc2cc(OC(=O)c3ccc(N=C(N)N)cc3)ccc2c1 [Nafamostat, nafamostat]",> 42000,–,> 42000,> 42000,> 42000,–,–,–,–,–,–,–,"EC50 ([1]; Severe acute respiratory syndrome coronavirus 2, Vero C1008): > 42000 nM"
"CC(C)C[C@H](NC(=O)c1cc2ccccc2o1)C(=O)N[C@H]1CC[C@@H](C)N(S(=O)(=O)c2ccccn2)CC1=O [Relacatib, relacatib]",> 42000,–,> 42000,> 42000,> 42000,> 42000,–,–,–,–,–,–,–
"CCC(CC)COC(=O)[C@H](C)N[P@](=O)(OC[C@H]1O[C@@](C#N)(c2ccc3c(N)ncnn23)[C@H](O)[C@@H]1O)Oc1ccccc1 [Remdesivir, remdesivir]",62.8,18.9,–,184,11.3,2240,81.5 ± 8.8,15.6 ± 5.1,42.9 ± 3.4,–,–,–,–
GC373,–,–,–,–,–,–,–,–,–,29.2 ± 3.7,19.7 ± 4.6,74 ± 4.5,–
GC376,–,–,–,–,–,–,–,–,–,35.2 ± 5.3,20.8 ± 5.6,75.9 ± 23.2,"EC50 ([1]; read-out: potency in inhibiting SARS-CoV-2 replicon replication (EC50), determined by % GFP signal): 22 ± 5.13 nM; EC50 ([1]; read-out: potency in inhibiting SARS-CoV-2 replicon replication (EC50), determined by % luciferase activity): 29.2 ± 9.17 nM; antiviral activity (in words) [2]: highly potent; also recorded: modestly active; cytotoxicity (293T cells): No cytotoxicity was detected"
PF-00835231,–,–,–,–,–,–,–,–,–,101 ± 33,74.8 ± 20,167 ± 15.3,fold lower in Vero cells [2]: 75-300 fold
